This experiment addresses PAI-1 (Homo sapiens, UniProt P05121). Nature of the experiment: PAI chromogenic substrate assay (first S2251 assay, tPA/plasminogen system). The class given is biochemical. Here is the method: In this assay, a compound is incubated with PAI-1 prior to addition to the tPA assay system. Inhibition of PAI-1 results in the production of plasmin from plasminogen. In turn, plasmin cleaves the chromogenic substrate S2251 (Kabi Vitrum) producing pNA (p-nitroaniline) which is detected spectrophotometrically at 405 nm (K. Nilsson et al, Fibrinolysis (1987) 1, 163-168).
Compounds of formula (A) were tested in a PAI chromogenic substrate assay. In the first assay (K. Nilsson, Fibrinolysis (1987) 1, 163-168) each compound was incubated with PAI-1 prior to addition to the tPA assay system. […] In turn, the plasmin cleaved the chromogenic substrate S2251 (Kabi-Vitrum) producing pNA (p-nitroaniline) which was detected spectrophotometrically at 405 nm.

Sequence of PAI-1 (P05121 24-402): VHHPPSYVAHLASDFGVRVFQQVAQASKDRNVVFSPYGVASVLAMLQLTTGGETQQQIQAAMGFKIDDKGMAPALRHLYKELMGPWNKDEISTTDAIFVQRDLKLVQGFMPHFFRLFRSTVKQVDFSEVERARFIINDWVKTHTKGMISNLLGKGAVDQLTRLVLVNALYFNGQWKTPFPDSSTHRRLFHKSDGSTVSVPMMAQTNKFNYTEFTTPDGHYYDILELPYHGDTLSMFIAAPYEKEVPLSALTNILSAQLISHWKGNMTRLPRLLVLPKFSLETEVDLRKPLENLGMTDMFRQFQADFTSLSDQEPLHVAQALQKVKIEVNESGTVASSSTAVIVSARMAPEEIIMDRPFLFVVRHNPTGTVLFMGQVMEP

As to `COc1ccc(/C=c2\[nH]c(=O)/c(=C/c3ccccc3Br)[nH]c2=O)cc1` [Compound 53, (3Z,6Z)-3-(2-Bromobenzylidene)-6-(4-methoxybenzylidene)-2,5-piperazinedione], the Inhibition of PAI-1 in the first S2251 chromogenic substrate assay by setting is: (Concentration 12.5 μm) 2%; (Concentration 25 μm) 9%; (Concentration 50 μm) 32%; (Concentration 100 μm) 55%.

`O=c1[nH]/c(=C\c2ccc(F)cc2F)c(=O)[nH]/c1=C\c1ccccc1` [Compound 54, (3Z,6Z)-6-Benzylidene-3-(2,4-difluorobenzylidene)-2,5-piperazinedione] registered an Inhibition of PAI-1 in the first S2251 chromogenic substrate assay (Concentration 12.5 μm) of 0%, an Inhibition of PAI-1 in the first S2251 chromogenic substrate assay (Concentration 25 μm) of 1%, an Inhibition of PAI-1 in the first S2251 chromogenic substrate assay (Concentration 50 μm) of 0% and an Inhibition of PAI-1 in the first S2251 chromogenic substrate assay (Concentration 100 μm) of 50%.

In the case of `O=c1[nH]/c(=C\c2ccccc2Br)c(=O)[nH]/c1=C\c1ccccc1` [Compound 55, (3Z,6Z)-6-Benzylidene-3-(2-bromobenzylidene)-2,5-piperazinedione], the Inhibition of PAI-1 in the first S2251 chromogenic substrate assay (Concentration 12.5 μm) is 1%, the Inhibition of PAI-1 in the first S2251 chromogenic substrate assay (Concentration 25 μm) was 11%, the Inhibition of PAI-1 in the first S2251 chromogenic substrate assay (Concentration 50 μm) was determined as 43% and the Inhibition of PAI-1 in the first S2251 chromogenic substrate assay (Concentration 100 μm) came out at 65%.

For `COc1ccc(/C=c2\[nH]c(=O)/c(=C/c3ccc(CNC(=O)OC(C)(C)C)cc3)[nH]c2=O)cc1` [Compound 56, (3Z,6Z)-(4-Methoxybenzylidene)-6-(4-tert-butoxycarbonylaminomethylbenzylidene)-2,5-piperazinedione], the Inhibition of PAI-1 in the first S2251 chromogenic substrate assay by setting is: (Concentration 12.5 μm) 2%; (Concentration 25 μm) 15%; (Concentration 50 μm) 60%; (Concentration 100 μm) 82%.

On to `COc1ccc(/C=c2\[nH]c(=O)/c(=C/c3ccc(CSC)cc3)[nH]c2=O)cc1` [Compound 57, (3Z,6Z)-3-(4-Methoxybenzylidene)-6-(4-methylthiomethylbenzylidene)-2,5-piperazinedione], for which the Inhibition of PAI-1 in the first S2251 chromogenic substrate assay (Concentration 12.5 μm) stood at 2%, the Inhibition of PAI-1 in the first S2251 chromogenic substrate assay (Concentration 25 μm) is 38%, the Inhibition of PAI-1 in the first S2251 chromogenic substrate assay (Concentration 50 μm) was 72% and the Inhibition of PAI-1 in the first S2251 chromogenic substrate assay (Concentration 100 μm) stood at 82%.

Take `CC(=O)Nc1ccc(/C=c2\[nH]c(=O)/c(=C/c3ccc(COC(C)=O)cc3)[nH]c2=O)cc1` [Compound 58, (3Z,6Z)-3-(4-Acetamidobenzylidene)-6-(4-acetoxymethylbenzylidene)-2,5-piperazinedione]: the Inhibition of PAI-1 in the first S2251 chromogenic substrate assay reads like this: (Concentration 12.5 μm) 1%; (Concentration 25 μm) 1%; (Concentration 50 μm) 31%; (Concentration 100 μm) 60%.

With `CSCc1ccc(/C=c2\[nH]c(=O)/c(=C/c3ccccc3)[nH]c2=O)cc1` [Compound 59, (3Z,6Z)-6-Benzylidene-3-(4-methylthiomethylbenzylidene)-2,5-piperazinedione], the Inhibition of PAI-1 in the first S2251 chromogenic substrate assay was found to be 19% (Concentration 12.5 μm), 60% (Concentration 25 μm), 76% (Concentration 50 μm) and 71% (Concentration 100 μm).

Take `COc1ccc(/C=c2\[nH]c(=O)/c(=C/c3ccc(CS(C)(=O)=O)cc3)[nH]c2=O)cc1` [Compound 60, (3Z,6Z)-3-(4-Methoxybenzylidene)-6-(4-methylsulfonylmethylbenzylidene)-2,5-piperazinedione]: the Inhibition of PAI-1 in the first S2251 chromogenic substrate assay was 1% (Concentration 12.5 μm), 25% (Concentration 25 μm), 52% (Concentration 50 μm) and 62% (Concentration 100 μm).

With `CC(=O)SCc1cccc(/C=c2\[nH]c(=O)/c(=C/c3ccccc3)[nH]c2=O)c1` [Compound 61, (3Z,6Z)-6-Benzylidene-3-(3-thioacetoxymethylbenzylidene)-2,5-piperazinedione], the Inhibition of PAI-1 in the first S2251 chromogenic substrate assay was 26% (Concentration 12.5 μm), 69% (Concentration 25 μm), 88% (Concentration 50 μm) and 83% (Concentration 100 μm).

Consider `COC(=O)c1cccc(/C=c2\[nH]c(=O)/c(=C/c3ccccc3)[nH]c2=O)c1` [Compound 62, 3-((3Z,6Z)-6-Benzylidene-2,5-dioxopiperazin-3-ylidene)methylbenzoic acid, methyl ester], for which the Inhibition of PAI-1 in the first S2251 chromogenic substrate assay by setting is: (Concentration 12.5 μm) 36%; (Concentration 25 μm) 13%; (Concentration 50 μm) 33%; (Concentration 100 μm) 83%.

With `COc1ccc(/C=c2\[nH]c(=O)/c(=C/c3cccc(CSC(C)=O)c3)[nH]c2=O)cc1` [Compound 63, (3Z,6Z)-3-(4-Methoxybenzylidene)-6-(3-thioacetoxymethylbenzylidene)-2,5-piperazinedione], the Inhibition of PAI-1 in the first S2251 chromogenic substrate assay (Concentration 12.5 μm) came to 36%, the Inhibition of PAI-1 in the first S2251 chromogenic substrate assay (Concentration 25 μm) stood at 44%, the Inhibition of PAI-1 in the first S2251 chromogenic substrate assay (Concentration 50 μm) was found to be 70% and the Inhibition of PAI-1 in the first S2251 chromogenic substrate assay (Concentration 100 μm) worked out at 69%.

As for `O=c1[nH]/c(=C\c2cccc(CS)c2)c(=O)[nH]/c1=C\c1ccccc1` [Compound 64, (3Z,6Z)-6-Benzylidene-3-(3-mercaptomethylbenzylidene)-2,5-piperazinedione], the Inhibition of PAI-1 in the first S2251 chromogenic substrate assay runs as follows: (Concentration 7.5 μm) 17%; (Concentration 15 μm) 63%; (Concentration 30 μm) 87%; (Concentration 60 μm) 100%.

In the case of `CC(C)(C)OC(=O)NCc1ccc(/C=c2\[nH]c(=O)/c(=C/c3ccccc3)[nH]c2=O)cc1` [Compound 66], the Inhibition of PAI-1 in the first S2251 chromogenic substrate assay reads like this: (Concentration 12.5 μm) 2%; (Concentration 25 μm) 46%; (Concentration 50 μm) 70%; (Concentration 100 μm) 85%.

For `CC(=O)Nc1ccc(/C=c2\[nH]c(=O)/c(=C/c3ccc(CNC(=O)OC(C)(C)C)cc3)[nH]c2=O)cc1` [Compound 68, (3Z,6Z)-3-(4-Acetamidobenzylidene)-6-(4-tert-butoxycarbonylaminomethylbenzylidene)-2,5-piperazinedione], the Inhibition of PAI-1 in the first S2251 chromogenic substrate assay was 37% (Concentration 12.5 μm), 67% (Concentration 25 μm), 89% (Concentration 50 μm) and 63% (Concentration 100 μm).

`COc1ccc(/C=c2\[nH]c(=O)/c(=C/c3ccc(F)cc3F)[nH]c2=O)cc1` [Compound 69, (3Z,6Z)-3-(2,4-Difluorobenzylidene)-6-(4-methoxybenzylidene)-2,5-piperazinedione]: the Inhibition of PAI-1 in the first S2251 chromogenic substrate assay runs as follows: (Concentration 12.5 μm) 3%; (Concentration 25 μm) 14%; (Concentration 50 μm) 40%; (Concentration 100 μm) 68%.

`COc1ccc(/C=c2\[nH]c(=O)/c(=C/c3ccccc3C(F)(F)F)[nH]c2=O)cc1` [Compound 70, (3Z,6Z)-3-(4-Methoxybenzylidene)-6-(2-trifluoromethylbenzylidene)-2,5-piperazinedione]: the Inhibition of PAI-1 in the first S2251 chromogenic substrate assay is, setting by setting: (Concentration 12.5 μm) 4%; (Concentration 25 μm) 21%; (Concentration 50 μm) 78%; (Concentration 100 μm) 94%.

On to `CC(=O)Nc1ccc(/C=c2\[nH]c(=O)/c(=C/c3ccccc3F)[nH]c2=O)cc1` [Compound 71, (3Z,6Z)-3-(4-Acetamidobenzylidene)-6-(2-fluorobenzylidene)-2,5-piperazinedione], for which the Inhibition of PAI-1 in the first S2251 chromogenic substrate assay was 1% (Concentration 3.75 μm); 1% (Concentration 7.5 μm); 51% (Concentration 15 μm); 64% (Concentration 30 μm); 52% (Concentration 60 μm).

As for `CC(=O)Nc1ccc(/C=c2\[nH]c(=O)/c(=C/c3ccc(F)cc3)[nH]c2=O)cc1` [Compound 72, (3Z,6Z)-3-(4-Acetamidobenzylidene)-6-(4-fluorobenzylidene)-2,5-piperazinedione], the Inhibition of PAI-1 in the first S2251 chromogenic substrate assay worked out at 2% (Concentration 3.75 μm); 1% (Concentration 7.5 μm); 18% (Concentration 15 μm); 75% (Concentration 30 μm); 76% (Concentration 60 μm).

`COc1ccc(/C=c2\[nH]c(=O)/c(=C/c3ccc(OC)cc3OC)[nH]c2=O)cc1` [Compound 73, (3Z,6Z)-3-(2,4-Dimethoxybenzylidene)-6-(4-methoxybenzylidene)-2,5-piperazinedione]: the Inhibition of PAI-1 in the first S2251 chromogenic substrate assay is, setting by setting: (Concentration 12.5 μm) 2%; (Concentration 25 μm) 1%; (Concentration 50 μm) 3%; (Concentration 100 μm) 50%.

These data come from patent publication US5700804A, “Pharmaceutical compounds” (Xenova Limited, priority 1992, dated 1997).
